Source: ChEMBL document CHEMBL4028884, “Discovery, Development, and Cellular Delivery of Potent and Selective Bicyclic Peptide Inhibitors of Grb7 Cancer Target” (J Med Chem, 2017)
Active and inactive are the calls of the source. The rule behind the calls is not given here. Where a SMILES comes first, the peptide text is derived from it. Bridges are numbered along the chain shown (N, C = ends). [ ]: non-standard residue; d: D form. Phe(4-COOH) = N[C@@H](Cc1ccc(C(=O)O)cc1)C(=O)O

Tests used:
[1] = target: Growth factor receptor-bound protein 7 (Homo sapiens) (UniProt Q14451); test: Inhibition of GRB7-HER2 interaction in human SKBR3 cells assessed as HER2 detection in cell lysates at 20 uM preincubated for 1 hr followed by fibronectin stimulation measured after 10 mins by Western blot analysis; assay type: cell-based
[2] = target: Growth factor receptor-bound protein 7 (Homo sapiens) (UniProt Q14451); test: Inhibition of GRB7-SHC interaction in human SKBR3 cells assessed as SHC detection in cell lysates at 20 uM preincubated for 1 hr followed by fibronectin stimulation measured after 10 mins by Western blot analysis; assay type: cell-based
[3] = target: Growth factor receptor-bound protein 7 (Homo sapiens) (UniProt Q14451); test: Inhibition of GRB7-FAK interaction in human SKBR3 cells assessed as FAK detection in cell lysates at 20 uM preincubated for 1 hr followed by fibronectin stimulation measured after 10 mins by Western blot analysis; assay type: cell-based
[4] = target: Growth factor receptor-bound protein 7 (Homo sapiens) (UniProt Q14451); test: Inhibition of GRB7-HER2 interaction in human SKBR3 cells assessed as HER2 detection in whole cells at 20 uM preincubated for 1 hr followed by fibronectin stimulation measured after 10 mins by Western blot analysis; assay type: cell-based
[5] = target: Growth factor receptor-bound protein 7 (Homo sapiens) (UniProt Q14451); test: Inhibition of GRB7-FAK interaction in human SKBR3 cells assessed as FAK detection in whole cells at 20 uM preincubated for 1 hr followed by fibronectin stimulation measured after 10 mins by Western blot analysis; assay type: cell-based
[6] = target: Growth factor receptor-bound protein 7 (Homo sapiens) (UniProt Q14451); test: Inhibition of GRB7-SHC interaction in human SKBR3 whole cells at 20 uM preincubated for 1 hr followed by fibronectin stimulation measured after 10 mins by Western blot analysis; assay type: cell-based
[7] = target: Growth factor receptor-bound protein 2 (Homo sapiens) (UniProt P62993); test: Binding affinity to human GST-tagged GRB2-SH2 domain expressed in Escherichia coli BL21(DE3) pLys after 60 to 80 secs in presence of 50 mM phosphate buffer by SPR assay
[8] = target: Growth factor receptor-bound protein 2 (Homo sapiens) (UniProt P62993); test: Binding affinity to human GST-tagged GRB2-SH2 domain expressed in Escherichia coli BL21(DE3) pLys after 60 to 80 secs in presence of 1 mM phosphate buffer by SPR assay
[9] = target: T1, Growth factor receptor-bound protein 10 (Homo sapiens) (UniProt Q13322); test: Binding affinity to human GST-tagged GRB10-SH2 domain (471 to 532 residues) expressed in Escherichia coli BL21(DE3) pLys after 60 to 80 secs in presence of 50 mM phosphate buffer by SPR assay
T1 sequence (whole entry): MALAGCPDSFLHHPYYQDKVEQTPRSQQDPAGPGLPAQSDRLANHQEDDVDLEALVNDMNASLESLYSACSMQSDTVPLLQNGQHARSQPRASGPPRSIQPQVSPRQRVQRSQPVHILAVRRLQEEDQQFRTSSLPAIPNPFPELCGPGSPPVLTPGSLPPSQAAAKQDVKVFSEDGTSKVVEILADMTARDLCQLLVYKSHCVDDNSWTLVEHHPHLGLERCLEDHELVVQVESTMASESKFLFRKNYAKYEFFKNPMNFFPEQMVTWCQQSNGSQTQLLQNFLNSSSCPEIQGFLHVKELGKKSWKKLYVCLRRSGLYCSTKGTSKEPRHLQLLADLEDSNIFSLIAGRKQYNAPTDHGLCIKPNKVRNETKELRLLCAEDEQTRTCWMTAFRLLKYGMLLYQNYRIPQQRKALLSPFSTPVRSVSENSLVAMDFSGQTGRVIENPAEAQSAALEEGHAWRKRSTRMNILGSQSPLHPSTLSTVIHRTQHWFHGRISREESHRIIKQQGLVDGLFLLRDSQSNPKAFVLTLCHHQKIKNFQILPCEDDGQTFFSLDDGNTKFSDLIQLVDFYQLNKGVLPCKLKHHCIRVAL

[10] = target: T1, Growth factor receptor-bound protein 10 (Homo sapiens); test: Binding affinity to human GST-tagged GRB10-SH2 domain (471 to 532 residues) expressed in Escherichia coli BL21(DE3) pLys after 60 to 80 secs in presence of 1 mM phosphate buffer by SPR assay

Sequence of Growth factor receptor-bound protein 7 (Homo sapiens) (Q14451 whole entry, the tested form may be a part): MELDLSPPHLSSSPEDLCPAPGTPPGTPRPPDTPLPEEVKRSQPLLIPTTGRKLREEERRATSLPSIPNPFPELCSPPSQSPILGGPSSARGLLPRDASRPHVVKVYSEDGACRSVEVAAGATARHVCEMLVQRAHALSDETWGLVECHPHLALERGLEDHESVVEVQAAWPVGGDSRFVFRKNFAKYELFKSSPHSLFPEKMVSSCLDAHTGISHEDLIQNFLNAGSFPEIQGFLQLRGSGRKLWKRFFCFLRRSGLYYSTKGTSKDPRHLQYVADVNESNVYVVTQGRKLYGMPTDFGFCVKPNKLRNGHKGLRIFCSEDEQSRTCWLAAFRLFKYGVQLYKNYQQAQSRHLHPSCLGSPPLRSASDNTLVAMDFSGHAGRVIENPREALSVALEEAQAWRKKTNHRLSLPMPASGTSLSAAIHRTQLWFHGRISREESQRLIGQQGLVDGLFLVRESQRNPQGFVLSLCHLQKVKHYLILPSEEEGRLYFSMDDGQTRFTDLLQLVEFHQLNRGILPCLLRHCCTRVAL

Row | Structure (SMILES) | inhibition [1] | inhibition [2] | inhibition [3] | inhibition [4] | inhibition [5] | inhibition [6] | Activity [7] | Activity [8] | Activity [9] | Activity [10]
1 | CC[C@H](C)[C@H](NC(=O)[C@H](CCCCN)NC(=O)[C@@H](NC(=O)[C@H](CCC(N)=O)NC(=O)[C@H](CCCNC(=N)N)NC(=O)[C@@H]1CSCC(=O)N[C@H]2CCCCNC(=O)CC[C@H](NC(=O)[C@H](CC(N)=O)NC(=O)[C@H](CC(=O)O)NC(=O)[C@H](Cc3ccc(O)cc3)NC(=O)CNC(=O)[C@H](CCC(=O)O)NC(=O)[C@H](Cc3ccccc3)NC2=O)C(=O)N1)[C@@H](C)CC)C(=O)N[C@@H](Cc1c[nH]c2ccccc12)C(=O)N[C@@H](Cc1ccccc1)C(=O)N[C@@H](CCC(N)=O)C(=O)N[C@@H](CC(N)=O)C(=O)N[C@@H](CCCNC(=N)N)C(=O)N[C@@H](CCCNC(=N)N)C(=O)N[C@@H](CCSC)C(=O)N[C@@H](CCCCN)C(=O)N[C@@H](Cc1c[nH]c2ccccc12)C(=O)N[C@@H](CCCCN)C(=O)N[C@@H](CCCCN)C(N)=O ({CH2CO}-KFEGYDNECRQIKIWFQNRRMKWKK-NH2; lactam 1-8; thioether N-9) | Active | Active | Active | Active | Active | Active |  |  |  | 
2 | NC(=O)C[C@@H]1NC(=O)[C@H](CC(=O)O)NC(=O)[C@H](Cc2ccc(O)cc2)NC(=O)CNC(=O)[C@H](CCC(=O)O)NC(=O)[C@H](Cc2ccccc2)NC(=O)[C@@H]2CCCCNC(=O)CC[C@H](NC1=O)C(=O)N[C@H](C(N)=O)CSCC(=O)N2 ({CH2CO}-KFEGYDNEC-NH2; lactam 1-8; thioether N-9) |  |  |  |  |  |  | inactive | inactive | inactive | inactive
3 | CC[C@H](C)[C@H](NC(=O)[C@H](CCCCN)NC(=O)[C@@H](NC(=O)[C@H](CCC(N)=O)NC(=O)[C@H](CCCNC(=N)N)NC(=O)[C@@H]1CSCC(=O)N[C@H]2CCCCNC(=O)CC[C@H](NC(=O)[C@H](CC(N)=O)NC(=O)[C@H](CC(=O)O)NC(=O)[C@H](Cc3ccc(C(=O)O)cc3)NC(=O)CNC(=O)[C@H](CCC(=O)O)NC(=O)[C@H](Cc3ccccc3)NC2=O)C(=O)N1)[C@@H](C)CC)C(=O)N[C@@H](Cc1c[nH]c2ccccc12)C(=O)N[C@@H](Cc1ccccc1)C(=O)N[C@@H](CCC(N)=O)C(=O)N[C@@H](CC(N)=O)C(=O)N[C@@H](CCCNC(=N)N)C(=O)N[C@@H](CCCNC(=N)N)C(=O)N[C@@H](CCSC)C(=O)N[C@@H](CCCCN)C(=O)N[C@@H](Cc1c[nH]c2ccccc12)C(=O)N[C@@H](CCCCN)C(=O)N[C@@H](CCCCN)C(N)=O ({CH2CO}-KFEG[Phe(4-COOH)]DNECRQIKIWFQNRRMKWKK-NH2; lactam 1-8; thioether N-9) | Active | Active | Active | Active | Active | Active |  |  |  | 
4 | CC[C@H](C)[C@H](NC(=O)[C@H](CCCCN)NC(=O)[C@@H](NC(=O)[C@H](CCC(N)=O)NC(=O)[C@H](CCCNC(=N)N)NC(=O)[C@@H]1CSCC(=O)N[C@@H](Cc2c[nH]c3ccccc23)C(=O)N[C@@H](Cc2ccccc2)C(=O)N[C@@H](CCC(=O)O)C(=O)NCC(=O)N[C@@H](Cc2ccc(C(=O)O)cc2)C(=O)N[C@@H](CC(=O)O)C(=O)N[C@@H](CC(N)=O)C(=O)N[C@@H]([C@@H](C)O)C(=O)N[C@@H](Cc2ccccc2)C(=O)N2CCC[C@H]2C(=O)N1)[C@@H](C)CC)C(=O)N[C@@H](Cc1c[nH]c2ccccc12)C(=O)N[C@@H](Cc1ccccc1)C(=O)N[C@@H](CCC(N)=O)C(=O)N[C@@H](CC(N)=O)C(=O)N[C@@H](CCCNC(=N)N)C(=O)N[C@@H](CCCNC(=N)N)C(=O)N[C@@H](CCSC)C(=O)N[C@@H](CCCCN)C(=O)N[C@@H](Cc1c[nH]c2ccccc12)C(=O)N[C@@H](CCCCN)C(=O)N[C@@H](CCCCN)C(N)=O | Active | Active | Active | Active | Active | Active |  |  |  | 

The remaining lines, values ahead:

Row | inhibition [1] | inhibition [2] | inhibition [3] | inhibition [4] | inhibition [5] | inhibition [6] | Activity [7] | Activity [8] | Activity [9] | Activity [10] | Structure (SMILES)
5 |  |  |  |  |  |  | inactive | inactive | inactive | inactive | NC(=O)C[C@@H]1NC(=O)[C@H](CC(=O)O)NC(=O)[C@H](Cc2ccc(O)cc2)NC(=O)CNC(=O)[C@H](CCC(=O)O)NC(=O)[C@H](Cc2ccccc2)NC(=O)[C@@H]2COCc3cn(nn3)CCC[C@H](NC1=O)C(=O)N[C@H](C(N)=O)CSCC(=O)N2
6 |  |  |  |  |  |  | inactive | inactive | inactive | inactive | NC(=O)C[C@@H]1NC(=O)[C@H](CC(=O)O)NC(=O)[C@H](Cc2ccc(O)cc2)NC(=O)CNC(=O)[C@H](CCC(=O)O)NC(=O)[C@H](Cc2ccccc2)NC(=O)[C@@H]2CCC(=O)NCCCC[C@H](NC1=O)C(=O)N[C@H](C(N)=O)CSCC(=O)N2 ({CH2CO}-EFEGYDNKC-NH2; lactam 1-8; thioether N-9)
